Measurements: patent US11684614B2, “Formulations of hydroxypyridonate actinide/lanthanide decorporation agents” (priority 2017, dated 2023)

Assay: Non-GLP 7-day repeat dose studies in beagle dogs, pharmacokinetics incl. iv group (SRI No. B677-13, M835-11)
Type: in vivo
Description: These two pilot studies included an iv administration group so that oral bioavailability could be calculated. The oral bioavailability was low at <3% and essentially the same in both studies regardless of whether the dogs received formulated capsules or 3,4,3-L1(1,2-HOPO) dissolved in PBS without sodium oleate. […] Volume of distribution was 0.3 L/kg, consistent with drug that is distributed primarily to the extracellular space.

O=C(NCCCN(CCCCN(CCCNC(=O)c1cccc(=O)n1O)C(=O)c1cccc(=O)n1O)C(=O)c1cccc(=O)n1O)c1cccc(=O)n1O [3,4,3-L1(1,2-HOPO)]
accumulation in the plasma (after 7 days of dosing): did not accumulate in the plasma | oral bioavailability (formulated capsules or API in PBS without sodium oleate): < 3% | Volume of distribution (iv 37.6 mg/kg (50 μmol/kg)): 0.3 L/kg | clearance (Cl) (iv 37.6 mg/kg (50 μmol/kg)): 9.9 mL/min/kg | mean AUCinf (iv 37.6 mg/kg (50 μmol/kg)): 64000 ng·h/mL | observed peak plasma level (iv 37.6 mg/kg (50 μmol/kg)): 115 ± 11 µg/mL | t½ (iv 37.6 mg/kg (50 μmol/kg)): 24 min
